{"source": "PubChem BioAssay (NCI)", "note": "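Method: 48-hour compound exposure of cells in 96-well plates, five concentrations, linear interpolation of endpoints. At the GI50, growth is halved. TGI: total growth inhibition.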", "data": [{"tested_on": "SW-620 colon", "assay": "growth of human tumour cells (NCI), 48 h", "units": {"GI50": "µM", "TGI": "µM"}, "values": [{"smiles": "COc1nc(=O)n(C2C=CC(=O)O2)cc1F", "note": "(centres undefined)", "GI50": 4.19, "TGI": 15.8}, {"smiles": "CNCCCNc1ccnc2cc(Cl)ccc12", "GI50": 13.2, "TGI": 58.8}, {"smiles": "O=c1[nH]c(O)c(C=Nc2ccc(-c3nc4ccccc4o3)cc2)c(=O)[nH]1", "GI50": 40.6, "TGI": "> 100"}, {"smiles": "COc1ccc(-c2cc(=O)oc3c4c(ccc23)OCN(Cc2ccc(F)cc2)C4)cc1", "GI50": 16.3, "TGI": 31.8}]}, {"tested_on": "T-47D breast", "assay": "growth of human tumour cells (NCI), 48 h", "units": {"GI50": "µM", "TGI": "µM"}, "values": [{"smiles": "COc1nc(=O)n(C2C=CC(=O)O2)cc1F", "note": "(centres undefined)", "GI50": 2.24, "TGI": 7.24}, {"smiles": "CNCCCNc1ccnc2cc(Cl)ccc12", "GI50": 25.7, "TGI": "> 100"}, {"smiles": "O=c1[nH]c(O)c(C=Nc2ccc(-c3nc4ccccc4o3)cc2)c(=O)[nH]1", "GI50": 93.7, "TGI": "> 100"}, {"smiles": "COc1ccc(-c2cc(=O)oc3c4c(ccc23)OCN(Cc2ccc(F)cc2)C4)cc1", "GI50": 13.5, "TGI": 43.8}]}, {"tested_on": "TK-10 renal", "assay": "growth of human tumour cells (NCI), 48 h", "units": {"GI50": "µM", "TGI": "µM"}, "values": [{"smiles": "COc1nc(=O)n(C2C=CC(=O)O2)cc1F", "note": "(centres undefined)", "GI50": 2.64, "TGI": 12.2}, {"smiles": "CNCCCNc1ccnc2cc(Cl)ccc12", "GI50": 18, "TGI": 54.4}, {"smiles": "O=c1[nH]c(O)c(C=Nc2ccc(-c3nc4ccccc4o3)cc2)c(=O)[nH]1", "GI50": 40.6, "TGI": "> 100"}, {"smiles": "COc1ccc(-c2cc(=O)oc3c4c(ccc23)OCN(Cc2ccc(F)cc2)C4)cc1", "GI50": 16.1, "TGI": 49.3}]}, {"tested_on": "U251 CNS", "assay": "growth of human tumour cells (NCI), 48 h", "units": {"GI50": "µM", "TGI": "µM"}, "values": [{"smiles": "COc1nc(=O)n(C2C=CC(=O)O2)cc1F", "note": "(centres undefined)", "GI50": 14.6, "TGI": 29.1}, {"smiles": "CNCCCNc1ccnc2cc(Cl)ccc12", "GI50": 22.5, "TGI": 62.4}, {"smiles": "O=c1[nH]c(O)c(C=Nc2ccc(-c3nc4ccccc4o3)cc2)c(=O)[nH]1", "GI50": 23.8, "TGI": 75.9}, {"smiles": "COc1ccc(-c2cc(=O)oc3c4c(ccc23)OCN(Cc2ccc(F)cc2)C4)cc1", "GI50": 14.8, "TGI": 29}]}, {"tested_on": "UACC-257 melanoma", "assay": "growth of human tumour cells (NCI), 48 h", "units": {"GI50": "µM", "TGI": "µM"}, "values": [{"smiles": "COc1nc(=O)n(C2C=CC(=O)O2)cc1F", "note": "(centres undefined)", "GI50": 11.6, "TGI": 31.4}, {"smiles": "O=c1[nH]c(O)c(C=Nc2ccc(-c3nc4ccccc4o3)cc2)c(=O)[nH]1", "GI50": 58.4, "TGI": "> 100"}, {"smiles": "COc1ccc(-c2cc(=O)oc3c4c(ccc23)OCN(Cc2ccc(F)cc2)C4)cc1", "GI50": 14.9, "TGI": 29.9}]}, {"tested_on": "UACC-62 melanoma", "assay": "growth of human tumour cells (NCI), 48 h", "units": {"GI50": "µM", "TGI": "µM"}, "values": [{"smiles": "COc1nc(=O)n(C2C=CC(=O)O2)cc1F", "note": "(centres undefined)", "GI50": 5.53, "TGI": 18.7}, {"smiles": "CNCCCNc1ccnc2cc(Cl)ccc12", "GI50": 20.1, "TGI": 45.7}, {"smiles": "O=c1[nH]c(O)c(C=Nc2ccc(-c3nc4ccccc4o3)cc2)c(=O)[nH]1", "GI50": 35.6, "TGI": "> 100"}, {"smiles": "COc1ccc(-c2cc(=O)oc3c4c(ccc23)OCN(Cc2ccc(F)cc2)C4)cc1", "GI50": 14.7, "TGI": 29.3}]}, {"tested_on": "UO-31 renal", "assay": "growth of human tumour cells (NCI), 48 h", "units": {"GI50": "µM", "TGI": "µM"}, "values": [{"smiles": "COc1nc(=O)n(C2C=CC(=O)O2)cc1F", "note": "(centres undefined)", "GI50": 5.18, "TGI": 18.3}, {"smiles": "CNCCCNc1ccnc2cc(Cl)ccc12", "GI50": 12.8, "TGI": 47.7}, {"smiles": "O=c1[nH]c(O)c(C=Nc2ccc(-c3nc4ccccc4o3)cc2)c(=O)[nH]1", "GI50": 82.4, "TGI": "> 100"}, {"smiles": "COc1ccc(-c2cc(=O)oc3c4c(ccc23)OCN(Cc2ccc(F)cc2)C4)cc1", "GI50": 7.26, "TGI": 37.9}]}]}
